Results published in US8563258B2, “Allergy test based on flow cytometric analysis” (Buhlmann Laboratories AG, priority 2007, dated 2013).
Like-named read-outs stand apart in the source and are kept apart here.

Experiments:
basophilic cells = settings: for MFI-CCR3 shift (cytotoxic concentration): human
Description: In Protocol 1 anti-IgE-FITC is used as the basophil selection marker, whereas in Protocol 2 anti-CCR3-PE is used.

blood basophils = settings: 21 normal blood donors
Method: Therefore, we established two protocols, one with diluted whole blood, wherein the EDTA blood sample is diluted 1 in 4 with cellular incubation buffer (the Stimulation Buffer) and another with purified blood, wherein the basophils were transferred from its plasma matrix to a plasma-free matrix such as the cellular incubation buffer by centrifuging and washing the blood cells.

basophils [1] = tested on: basophils
Description: Peripheral blood leukocytes are isolated from patients' whole blood samples and primed with Stimulation Buffer containing interleukin 3 (IL-3). […] During this activation intracellular compounds containing the transmembrane protein CD63 are fused to the cellular membrane and therefore exposed to the extracellular matrix.
A highly specific monoclonal antibody (mAb) recognizing the high affinity IgE binding receptor (FcεRI) is used as a positive control, leading to the activation of the basophils by mimicking the bridging event.
After stopping the reaction the Staining Reagent is added containing a mixture of monoclonal antibodies to human CD63 labeled with phycoerythrin (anti-CD63-PE) and to human IgE labeled with fluorescein isothiocyanate (anti-IgE-FITC). The remaining erythrocytes are removed by a lysing reaction and after blocking the reaction the cells are analyzed by flow cytometry.
Mix the anti-coagulated blood sample by inverting the venipuncture tube several times. Centrifuge the venipuncture tube for 5 minutes at 200×g. After the centrifugation step, two phases can be observed from top to the bottom of the tube: • i) plasma fraction containing the leukocytes • ii) erythrocyte fraction • Alternative procedure for cell separation: • Mix the anti-coagulated blood sample by inverting the venipuncture tube several times. • Let the samples sediment (erythrocytes) at room temperature for one hour. Collect the upper phase (plasma fraction containing the leukocytes) and continue with step 2. • If the erythrocytes sedimentation is not complete after one hour of incubation, the centrifugation step above is recommended. • 2. Collect the plasma fraction with the leukocytes on the top of the erythrocytes with a disposable plastic syringe or plastic pipette and transfer it into a fresh and pyrogen-free 5 ml polypropylene or polystyrene tube. • NOTE: Because of the low amount of basophils in the leukocyte fraction it is important to collect the entire plasma fraction. […] Centrifuge for 10 minutes at 500×g. Completely remove the plasma fraction on the top of the cell pellet with a pipette. • 4. Add 100 μl of Stimulation Buffer per ml of blood used at the beginning (i.e. for 5 ml blood sample used, the pellet has to be solved with 500 μl of Stimulation Buffer). Resuspend the leukocytes pellet carefully. • 5a. For each patient, label pyrogen-free polystyrene tubes suited for Flow Cytometry measurements (e.g., PB=patient background=negative control, PC=stimulation control with anti-FcεRI Ab, A1-1 for antigen 1 with dilution 1, A1-2 for allergen 1 with dilution 2, etc.) or use tissue culture grade microtiter plates. • 5b. Pipet 50 μl of Stimulation Buffer (background 0 negative control) into the PB tube of each patient. • 5c. Pipet 50 μl of Stimulation Control into the PC tube of each patient. • 5d. Pipet 50 μl of Allergen (=test substance) into the corresponding patient tubes. • 6. Pipet 50 μl of each patient's cell suspension into the corresponding tubes. • 7. Vortex gently, cover the tubes and incubate for 40±5 minutes at 37° C. in a water bath. • 8. Add 50 μl of cold Blocking Buffer to each tube. • 9. Add 20 μl of cold Staining Reagent to each tube. Vortex gently. • 10. Incubate for 30±5 minutes at 2-8° C. • 11. Vortex gently the sedimented cells, add 3.5 ml of pre-warmed (18-28° C.) Lysing Reagent to each tube and incubate for 5±1 minutes at 18-28° C. • 12. Stop the reaction with 1 ml of Blocking Buffer. • 13. Centrifuge for 5 minutes at 1000-1200×g. • 14. Decant or aspirate the supernatant and resuspend the cell pellet with 500 μl of Blocking Buffer. Vortex gently. • 15. Proceed to the analysis by Flow Cytometry within 2 hours.
Flow cytometric analysis can be performed on any flow cytometer containing a 488 nm argon laser (blue-green excitation light) and the corresponding software.

basophils [2] = experiment: Alternative use of FcεRI instead of IgE as basophil selection/activation marker (Example 7); format: cell-based, human; settings: for MFI Activation Index (anti-FcεRI-AF647 and anti-IgE-AF647): Amoxicillin allergic patient

COc1ccc2cc([C@H](C)C(=O)O)ccc2c1 [Naproxen]
MFI-CCR3 shift (cytotoxic concentration) (basophilic cells; 1 mg/ml): clearcut downregulation of MFI-CCR3 | MFI-CCR3 shift (cytotoxic concentration) (basophilic cells; 5 mg/ml): clearcut downregulation of MFI-CCR3 | unspecific stimulatory effects on basophils (blood basophils; 1 mg/ml, washed blood cells): unspecific stimulatory effects | cytotoxic effects on blood basophils (blood basophils; 5 mg/ml, all blood preparation methods): cytotoxic effects

CC(=O)Oc1ccccc1C(=O)O [Aspirin]
MFI-CCR3 shift (cytotoxic concentration) (basophilic cells; 5 mg/ml): clearcut downregulation of MFI-CCR3 | combined MFI-IgE/CD63 Activation Index (basophils [1]; Patient 8): positive results | CD63 expression (basophils [1]; Patient 9): clearcut reaction | combined MFI-IgE/CD63 Activation Index (basophils [1]; Patient 9): clearcut reaction

CC1(C)S[C@@H]2[C@H](NC(=O)[C@H](N)c3ccc(O)cc3)C(=O)N2[C@H]1C(=O)O [Amoxicillin]
CCR3 positive cells after stimulation (basophilic cells; 2 mg/ml, CCR3 selection marker): can still be easily identified | IgE positive basophilic cells after stimulation (basophilic cells; 2 mg/ml, IgE selection marker): disappearing | result of all methods tested (CD63 expression, combined Activation Index, spIgE, skin test) (basophils [1]; Patient 4 (control subject)): negative result | combined MFI-IgE/CD63 Activation Index (basophils [1]; Patient 5): positive result | CD63 expression (basophils [1]; Patient 5, cutoff 5% plus SI≧2): negative | MFI Activation Index (anti-FcεRI-AF647 and anti-IgE-AF647) (basophils [2]; 0.04 mg/ml (C3)): negative | MFI Activation Index (anti-FcεRI-AF647 and anti-IgE-AF647) (basophils [2]; 0.2 mg/ml (C2)): intermediate | MFI Activation Index (anti-FcεRI-AF647 and anti-IgE-AF647) (basophils [2]; 1 mg/ml (C1)): strong activation

O=C(O)Cc1ccccc1Nc1c(Cl)cccc1Cl [Diclofenac]
CD63 expression (basophils [1]; Patient 9): clearcut reaction | combined MFI-IgE/CD63 Activation Index (basophils [1]; Patient 9): clearcut reaction

CSCC[C@H](NC=O)C(=O)N[C@@H](CC(C)C)C(=O)N[C@@H](Cc1ccccc1)C(=O)O [fMLP, N-formyl-L-methionyl-L-leucyl-L-phenylalanine]
stimulation yield as alternative positive control (basophils [2]; compared with anti-FcεRI mAb): lower stimulation yields than anti-FcεRI mAb

CC(C)Cc1ccc(C(C)C(=O)O)cc1 (stereo not shown) [Ibuprofen]
combined MFI-IgE/CD63 Activation Index (basophils [1]; Patient 8): positive results | CD63 expression (basophils [1]; Patient 9): clearcut reaction | combined MFI-IgE/CD63 Activation Index (basophils [1]; Patient 9): clearcut reaction
